Data as given in US20130131075A1, “NEW COMPOUNDS” (Boehringer Ingelheim International GmbH, priority 2009, published 2013).

Molecular target: T1, cynomolgus BK1-receptor (Macaca fascicularis, UniProt Q3BCU0)
T1 construct: expressed in transfected cells; host or cells: CHO cells (homogenate)
T1 sequence (Q3BCU0 1-352): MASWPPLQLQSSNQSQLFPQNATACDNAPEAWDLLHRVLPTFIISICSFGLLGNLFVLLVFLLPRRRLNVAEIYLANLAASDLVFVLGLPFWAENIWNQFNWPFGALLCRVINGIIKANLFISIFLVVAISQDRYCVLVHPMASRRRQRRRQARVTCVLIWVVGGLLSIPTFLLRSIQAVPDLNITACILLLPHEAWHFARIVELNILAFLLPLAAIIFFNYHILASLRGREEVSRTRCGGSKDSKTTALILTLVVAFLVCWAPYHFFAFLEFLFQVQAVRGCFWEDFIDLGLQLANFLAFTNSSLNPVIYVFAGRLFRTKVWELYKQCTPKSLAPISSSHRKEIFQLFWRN
Experiment: cynoBK1-receptor binding assay
Details: CHO cells expressing cynomolgus BK1-receptor, radioligand kallidine (DesArg10,Leu9); for inhibition at 10 µM: at 10 μgmol/L
How it was run: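 Radioligand competition on homogenates of CHO cells expressing cynomolgus BK1 receptor (50 to 250 μg protein/assay), incubated 60-180 minutes at ambient temperature with 0.5 to 5.0 nM [3H]kallidine (DesArg10,Leu9) plus increasing test compound. Filtration binding; non-specific defined with 1.0 μM kallidine (DesArg10); Ki from non-linear curve fitting.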

Ki [nM]	inhibition at 10 µM [%]	Compound
115	101	O=C(N[C@@]1(C(=O)NCc2ncc(Nc3c(F)cccc3C(F)(F)F)cc2F)CCOC1)c1cncnc1 [(158)]
24		CCNc1ccc(C(=O)NC2(C(=O)NCc3ccc(Nc4ccc(Cl)cc4C(F)(F)F)cn3)CC2)cn1 [(329)]
37	105	Nc1cc(C(=O)NC2(C(=O)NCc3ccc(Nc4ccc(F)cc4C(F)(F)F)cn3)CC2)on1 [(150)]
0.7	115	COc1ccc(Nc2ccc(CNC(=O)C3(NC(=O)c4cncnc4)CC3)nc2)c(C(F)(F)F)c1 [(50)]
> 500	96	Cc1ccc(Nc2ccc(CNC(=O)C3(NC(=O)c4cncnc4)CC3)nc2)c(Cl)c1 [(189)]
	101	O=C(NC1(C(=O)NCc2ncc(Nc3ccc(Br)cc3C(F)(F)F)cc2F)CC1)c1cncnc1 [(179)]
508		N#CC1(C(=O)NC2(C(=O)NCc3ccc(Nc4ccc(Cl)cc4C(F)(F)F)cn3)CC2)CC1 [(367)]
2		Cc1cc(Nc2ccc(F)cc2C(F)(F)F)cnc1CNC(=O)C1(NC(=O)c2cncnc2)CC1 [(306)]
4		Cc1ncc(C(=O)N[C@@]2(C(=O)NCc3ccc(Nc4ccc(F)cc4C(F)(F)F)cc3F)CCOC2)cn1 [(274)]
5.5		Cc1ncc(C(=O)N[C@@]2(C(=O)NCc3ccc(Nc4ccccc4C(F)(F)F)cc3F)CCOC2)cn1 [(279)]
9.8	100	O=C(NC1(C(=O)NCc2ccc(Nc3ccc(Br)cc3C(F)(F)F)cn2)CC1)c1cncs1 [(172)]
567		O=C(N[C@@]1(C(=O)NCc2ccc(Nc3ccc(Cl)cc3C(F)(F)F)cc2)CCOC1)c1cncs1 [(336)]
12	106	Nc1cncc(C(=O)NC2(C(=O)NCc3ccc(Nc4ccc(F)cc4C(F)(F)F)cn3)CC2)c1 [(142)]
2.6	108	O=C(NC1(C(=O)NCc2ccc(Nc3ccc(F)cc3C(F)(F)F)cn2)CC1)c1cncnc1 [(41)]
	65	O=C(NC1(C(=O)NCc2ccc(Nc3ccccc3)cc2)CC1)c1cncnc1 [(3)]
	88	Cc1ncc(C(=O)N[C@@]2(C(=O)NCc3ccc(Nc4ccccc4C(F)(F)F)cc3)CCOC2)c(C)n1 [(80)]
9	113	Cc1ncc(C(=O)N[C@@]2(C(=O)NCc3ccc(Nc4ccccc4C(F)(F)F)cc3)CCOC2)cn1 [(83)]
5.5		O=C(NC1(C(=O)NCc2ccc(Nc3ccc(Cl)cc3C(F)(F)F)cn2)CC1)c1cnc(NC2CC2)nc1 [(379)]
	80	O=C1CCC(C(=O)N[C@@]2(C(=O)NCc3ccc(Nc4ccccc4C(F)(F)F)cc3)CCOC2)CN1 (stereo partly shown) [(76)]
	110	O=C(NC1(C(=O)NCc2ccc(Nc3ccccc3C(F)(F)F)cc2)CC1)C(F)(F)F [(23)]
17		Cc1ncc(C(=O)N[C@@]2(C(=O)NCc3ncc(Nc4ccc(Cl)cc4C(F)(F)F)cc3C)CCOC2)cn1 [(345)]

Ki [nM]	inhibition at 10 µM [%]	Compound
	58	CN(C)CCCCC(=O)NC1(C(=O)NCc2ccc(Nc3ccccc3C(F)(F)F)cc2)CC1 [(10)]
101	101	O=C(NC1(C(=O)NCc2ncc(Nc3c(F)cccc3C(F)(F)F)cc2F)CC1)c1ccnc(O)c1 [(130)]
	99	O=C1CCC(C(=O)N[C@@]2(C(=O)NCc3ccc(Nc4ccccc4C(F)(F)F)cc3)CCOC2)N1 (stereo partly shown) [(56)]
312		COc1cncc(C(=O)N[C@@]2(C(=O)NCc3ccc(Nc4ccc(Cl)cc4C(F)(F)F)cc3)CCOC2)c1 [(337)]
4.4	107	Cc1ncc(C(=O)NC2(C(=O)NCc3ccc(Nc4ccc(Cl)cc4C(F)(F)F)cn3)CC2)cn1 [(147)]
82		Cc1ncc(C(=O)NC2(C(=O)NCc3ccc(Nc4ccc(F)cc4C(F)(F)F)cn3)CC2)s1 [(303)]
125		Cc1cc(Nc2ccccc2C(F)(F)F)cnc1CNC(=O)[C@]1(NC(=O)c2cncc(N)c2)CCOC1 [(359)]
21		CNc1ncc(C(=O)N[C@@]2(C(=O)NCc3ccc(Nc4ccc(F)cc4C(F)(F)F)cc3)CCOC2)cn1 [(289)]
1.1		Cc1ncc(C(=O)NC2(C(=O)NCc3ncc(Nc4ccccc4C(F)(F)F)cc3Cl)CC2)cn1 [(301)]
8.3	110	CC(NC(=O)C1(NC(=O)c2cncnc2)CC1)c1ccc(Nc2c(F)cccc2C(F)(F)F)cn1 (stereo not shown) [(123)]
6.6		COc1ncc(C(=O)N[C@@]2(C(=O)NCc3ncc(Nc4ccc(F)cc4C(F)(F)F)cc3F)CCOC2)cn1 [(238)]
45	104	O=C(NC1(C(=O)NCc2ccc(Nc3ccc(Cl)cc3Cl)cn2)CC1)c1cncnc1 [(166)]
> 500	42	O=C(O)c1ccc(Nc2ccc(CNC(=O)C3(NC(=O)c4cncnc4)CC3)nc2)c(C(F)(F)F)c1 [(195)]
	71	O=C(N[C@@]1(C(=O)NCc2ccc(Nc3cc(F)ccc3C(F)(F)F)cn2)CCOC1)c1cncnc1 [(48)]
648		Nc1ccc(C(=O)N[C@@]2(C(=O)NCc3ccc(Nc4ccc(F)cc4C(F)(F)F)cn3)CCOC2)cn1 [(349)]
7.3		CCOc1ncc(C(=O)NC2(C(=O)NCc3ccc(Nc4ccc(Cl)cc4C(F)(F)F)cn3)CC2)cn1 [(390)]
1.4		Nc1ncc(C(=O)NC2(C(=O)NCc3ccc(Nc4ccc(Cl)cc4C(F)(F)F)cn3)CC2)cn1 [(370)]
47		CNc1cncc(C(=O)N[C@@]2(C(=O)NCc3ncc(Nc4ccc(F)cc4C(F)(F)F)cc3Cl)CCOC2)c1 [(269)]
8.2		Nc1cncc(C(=O)N[C@@]2(C(=O)NCc3ccc(Nc4ccccc4C(F)(F)F)cc3F)CCOC2)c1 [(236)]
37		O=C(NC1(C(=O)NCc2ccc(Nc3ccc(Cl)cc3C(F)(F)F)cn2)CC1)c1cnsc1 [(358)]
	95	O=C(NC1(C(=O)NCc2ccc(Nc3ccccc3C(F)(F)F)cn2)CC[S+]([O-])C1)c1cncnc1 (stereo not shown) [(194)]

Ki [nM]	inhibition at 10 µM [%]	Compound
77		N#CCC(=O)NC1(C(=O)NCc2ccc(Nc3ccc(Cl)cc3C(F)(F)F)cn2)CC1 [(364)]
9.7	106	O=C(N[C@@]1(C(=O)NCc2ncc(Nc3ccc(F)cc3C(F)(F)F)cc2F)CCOC1)c1cncnc1 [(153)]
	95	O=C(NC1(C(=O)NCc2ccc(Nc3ccccc3C(F)(F)F)cn2)CCC(O)C1)c1cncnc1 (stereo not shown) [(192)]
64	109	O=C(NC1(C(=O)NCc2ccc(Nc3ccc(OCC(F)F)cc3C(F)(F)F)cc2)CC1)c1cncnc1 [(118)]
200	93	CS(=O)(=O)c1ccc(Nc2ccc(CNC(=O)C3(NC(=O)c4cncnc4)CC3)cc2)c(C(F)(F)F)c1 [(32)]
27		O=C(NC1(C(=O)NCc2ccc(Nc3ccc(Cl)cc3C(F)(F)F)cn2)CC1)c1cncc(C(F)(F)F)c1 [(354)]
	45	COc1ccc(N(C)c2ccc(CNC(=O)C3(NC(=O)c4cncnc4)CC3)cc2)cc1 [(112)]
3.8	112	O=C(NC1(C(=O)NCc2ccc(Nc3ccc(Br)cc3C(F)(F)F)cn2)CC1)c1cncnc1 [(54)]
43	92	CC(NC(=O)[C@]1(NC(=O)c2cncnc2)CCOC1)c1ccc(Nc2ccc(Br)cc2C(F)(F)F)cn1 (stereo partly shown) [(188)]
37		COc1ncc(C(=O)N[C@@]2(C(=O)NCc3ncc(Nc4c(F)cccc4C(F)(F)F)cc3Cl)CCOC2)cn1 [(258)]
	56	O=C(N[C@@]1(C(=O)NCc2ccc(Nc3ccccc3C(F)(F)F)cc2)CCOC1)c1cccnn1 [(74)]
5.6		Cc1ncc(C(=O)NC2(C(=O)NCc3ccc(Nc4ccc(F)cc4C(F)(F)F)cn3)CC2)cn1 [(232)]
37		O=C(NC1(C(=O)NCc2ccc(Nc3ccc(Cl)cc3C(F)(F)F)cn2)CC1)c1ccno1 [(369)]
17		CC(=O)Nc1ncc(C(=O)NC2(C(=O)NCc3ccc(Nc4ccc(F)cc4C(F)(F)F)cn3)CC2)s1 [(257)]
	108	O=C(N[C@@]1(C(=O)NCc2ccc(Nc3ccccc3C(F)(F)F)cc2)CCOC1)c1cncnc1 [(127)]
504		O=C(NC1(C(=O)NCc2ccc(Nc3c(F)cccc3Br)cn2)CC1)c1cncnc1 [(326)]
97		CNc1cc(C(=O)NC2(C(=O)NCc3ccc(Nc4ccc(F)cc4C(F)(F)F)cn3)CC2)cnn1 [(227)]
25		O=C(NC1(C(=O)NCc2ccc(Nc3ccc(Cl)cc3C(F)(F)F)cn2)CC1)c1cccc(O)n1 [(211)]
7.8		O=C(N[C@@]1(C(=O)NCc2ncc(Nc3ccc(F)cc3C(F)(F)F)cc2Cl)CCOC1)c1cncnc1 [(216)]
25	100	O=C(NC1(C(=O)NCc2ccc(Nc3ccccc3Cl)cc2)CC1)c1cncnc1 [(2)]
78		O=C(NC1(C(=O)NCc2ccc(Nc3ccc(Cl)cc3C(F)(F)F)cn2)CC1)c1ccc2[nH]cnc2c1 [(266)]
